Source: ChEMBL document CHEMBL5291721, “A preclinical secondary pharmacology resource illuminates target-adverse drug reaction associations of marketed drugs” (Nat Commun, 2023)

Columns and labels:
Adenosine receptor A1 = molecular target: T1, Adenosine receptor A1 (Homo sapiens, UniProt P30542)
T1 sequence (P30542 whole entry): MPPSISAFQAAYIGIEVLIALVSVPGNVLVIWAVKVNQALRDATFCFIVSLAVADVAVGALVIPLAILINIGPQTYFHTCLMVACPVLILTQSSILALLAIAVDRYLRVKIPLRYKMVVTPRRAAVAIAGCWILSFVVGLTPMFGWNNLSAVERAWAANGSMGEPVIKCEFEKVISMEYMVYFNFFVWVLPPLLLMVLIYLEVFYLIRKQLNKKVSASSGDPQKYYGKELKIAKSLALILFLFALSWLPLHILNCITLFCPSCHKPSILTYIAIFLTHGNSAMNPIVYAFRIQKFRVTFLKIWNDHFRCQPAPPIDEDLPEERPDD

[1] = molecular target: T2, Alpha-2A adrenergic receptor (Homo sapiens, UniProt P08913); assay type: functional, cell-based
T2 sequence (P08913 whole entry): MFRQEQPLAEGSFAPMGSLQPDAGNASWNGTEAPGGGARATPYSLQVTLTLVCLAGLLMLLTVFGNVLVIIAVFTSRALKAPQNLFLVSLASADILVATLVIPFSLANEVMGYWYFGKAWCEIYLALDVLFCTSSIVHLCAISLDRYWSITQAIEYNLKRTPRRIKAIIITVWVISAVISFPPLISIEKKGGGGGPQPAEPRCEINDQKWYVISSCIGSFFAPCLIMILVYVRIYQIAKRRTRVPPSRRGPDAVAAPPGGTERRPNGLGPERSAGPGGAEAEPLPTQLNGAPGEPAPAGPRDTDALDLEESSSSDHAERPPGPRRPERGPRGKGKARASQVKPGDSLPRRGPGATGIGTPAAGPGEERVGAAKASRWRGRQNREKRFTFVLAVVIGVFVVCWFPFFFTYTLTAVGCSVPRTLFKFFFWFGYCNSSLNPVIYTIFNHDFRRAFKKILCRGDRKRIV

Vasopressin V2 receptor = Vasopressin V2 receptor (Homo sapiens, UniProt P30518)
Vasopressin V2 receptor, sequence (P30518 whole entry): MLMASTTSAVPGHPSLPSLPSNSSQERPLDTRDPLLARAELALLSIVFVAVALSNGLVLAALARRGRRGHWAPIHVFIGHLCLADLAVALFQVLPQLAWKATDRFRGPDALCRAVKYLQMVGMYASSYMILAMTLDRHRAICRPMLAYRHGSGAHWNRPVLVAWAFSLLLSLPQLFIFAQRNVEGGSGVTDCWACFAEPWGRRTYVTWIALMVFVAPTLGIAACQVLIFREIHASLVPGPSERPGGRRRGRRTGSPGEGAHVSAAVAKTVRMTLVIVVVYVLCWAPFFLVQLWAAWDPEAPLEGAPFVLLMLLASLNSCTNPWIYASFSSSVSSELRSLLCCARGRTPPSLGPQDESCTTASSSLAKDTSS

[2] = molecular target: T3, Gastrin/cholecystokinin type B receptor (Homo sapiens, UniProt P32239)
T3 sequence (P32239 whole entry): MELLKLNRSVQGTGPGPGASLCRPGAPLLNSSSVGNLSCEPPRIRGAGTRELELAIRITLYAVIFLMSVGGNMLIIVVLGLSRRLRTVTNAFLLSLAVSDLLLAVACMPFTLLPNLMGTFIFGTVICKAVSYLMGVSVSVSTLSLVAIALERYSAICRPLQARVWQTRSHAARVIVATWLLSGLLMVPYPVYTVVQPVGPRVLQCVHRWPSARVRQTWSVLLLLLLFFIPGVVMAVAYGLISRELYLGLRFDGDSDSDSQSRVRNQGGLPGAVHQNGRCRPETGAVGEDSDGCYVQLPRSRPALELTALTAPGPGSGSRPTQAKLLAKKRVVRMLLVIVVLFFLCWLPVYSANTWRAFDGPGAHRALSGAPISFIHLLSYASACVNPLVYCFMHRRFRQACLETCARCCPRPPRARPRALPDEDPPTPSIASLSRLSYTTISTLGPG

[3] = molecular target: Gamma-aminobutyric acid receptor subunit alpha-1 (Rattus norvegicus, UniProt P62813)
Gamma-aminobutyric acid receptor subunit alpha-1, sequence (P62813 whole entry): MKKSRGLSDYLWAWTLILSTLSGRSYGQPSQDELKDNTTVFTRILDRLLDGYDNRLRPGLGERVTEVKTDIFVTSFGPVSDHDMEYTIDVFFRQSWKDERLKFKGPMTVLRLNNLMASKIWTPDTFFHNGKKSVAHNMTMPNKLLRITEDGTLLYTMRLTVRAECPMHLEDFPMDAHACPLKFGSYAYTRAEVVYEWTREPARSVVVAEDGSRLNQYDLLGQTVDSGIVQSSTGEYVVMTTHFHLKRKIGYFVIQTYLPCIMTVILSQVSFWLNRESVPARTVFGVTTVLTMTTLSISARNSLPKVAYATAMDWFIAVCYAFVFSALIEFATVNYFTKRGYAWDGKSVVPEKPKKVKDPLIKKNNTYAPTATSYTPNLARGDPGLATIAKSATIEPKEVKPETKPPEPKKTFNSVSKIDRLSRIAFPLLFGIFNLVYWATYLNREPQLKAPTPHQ

[4] = molecular target: T4, 5-hydroxytryptamine receptor 1A (Homo sapiens, UniProt P08908); assay type: functional, cell-based
T4 sequence (P08908 whole entry): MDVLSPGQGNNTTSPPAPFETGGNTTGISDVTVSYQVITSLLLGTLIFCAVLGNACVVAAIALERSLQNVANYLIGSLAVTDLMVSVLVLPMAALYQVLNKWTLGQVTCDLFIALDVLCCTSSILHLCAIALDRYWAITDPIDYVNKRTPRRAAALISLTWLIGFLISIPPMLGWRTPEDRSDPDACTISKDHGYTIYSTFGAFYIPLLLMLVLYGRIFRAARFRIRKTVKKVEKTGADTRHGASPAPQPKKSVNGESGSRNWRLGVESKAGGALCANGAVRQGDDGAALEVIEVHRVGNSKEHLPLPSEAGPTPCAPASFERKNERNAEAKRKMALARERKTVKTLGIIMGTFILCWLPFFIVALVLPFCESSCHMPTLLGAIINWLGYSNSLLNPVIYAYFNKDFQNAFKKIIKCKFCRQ

[5] = molecular target: 5-hydroxytryptamine receptor 2A (Homo sapiens, UniProt P28223); assay type: functional, cell-based
5-hydroxytryptamine receptor 2A, sequence (P28223 whole entry): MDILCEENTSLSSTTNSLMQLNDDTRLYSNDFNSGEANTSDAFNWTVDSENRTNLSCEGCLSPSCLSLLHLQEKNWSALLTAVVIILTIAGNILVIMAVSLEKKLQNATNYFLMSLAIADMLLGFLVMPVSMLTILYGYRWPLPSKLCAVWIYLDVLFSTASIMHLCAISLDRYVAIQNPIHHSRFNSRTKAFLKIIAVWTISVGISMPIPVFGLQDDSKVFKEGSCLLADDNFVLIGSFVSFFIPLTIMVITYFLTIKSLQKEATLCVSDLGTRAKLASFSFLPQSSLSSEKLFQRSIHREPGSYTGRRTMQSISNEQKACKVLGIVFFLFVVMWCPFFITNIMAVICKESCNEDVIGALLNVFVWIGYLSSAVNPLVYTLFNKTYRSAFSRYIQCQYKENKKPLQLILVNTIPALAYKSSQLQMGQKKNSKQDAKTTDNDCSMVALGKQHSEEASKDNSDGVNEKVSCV

[6] = molecular target: 5-hydroxytryptamine receptor 2B (Homo sapiens, UniProt P41595); assay type: functional, cell-based
5-hydroxytryptamine receptor 2B, sequence (P41595 whole entry): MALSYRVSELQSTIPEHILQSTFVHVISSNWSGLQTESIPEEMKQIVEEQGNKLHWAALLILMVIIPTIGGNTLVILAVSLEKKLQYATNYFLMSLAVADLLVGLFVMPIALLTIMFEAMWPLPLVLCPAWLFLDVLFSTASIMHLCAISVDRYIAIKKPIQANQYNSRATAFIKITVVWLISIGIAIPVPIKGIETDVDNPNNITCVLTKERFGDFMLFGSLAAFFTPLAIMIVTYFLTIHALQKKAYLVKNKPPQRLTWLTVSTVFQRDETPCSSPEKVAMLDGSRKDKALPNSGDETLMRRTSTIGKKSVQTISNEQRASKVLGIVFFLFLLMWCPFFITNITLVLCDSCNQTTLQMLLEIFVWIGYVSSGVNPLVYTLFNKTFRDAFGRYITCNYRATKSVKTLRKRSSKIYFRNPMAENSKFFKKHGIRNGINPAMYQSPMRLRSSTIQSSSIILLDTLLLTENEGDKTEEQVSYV

Glucocorticoid receptor = molecular target: T5, Glucocorticoid receptor (Homo sapiens, UniProt P04150)
T5 sequence (P04150 whole entry): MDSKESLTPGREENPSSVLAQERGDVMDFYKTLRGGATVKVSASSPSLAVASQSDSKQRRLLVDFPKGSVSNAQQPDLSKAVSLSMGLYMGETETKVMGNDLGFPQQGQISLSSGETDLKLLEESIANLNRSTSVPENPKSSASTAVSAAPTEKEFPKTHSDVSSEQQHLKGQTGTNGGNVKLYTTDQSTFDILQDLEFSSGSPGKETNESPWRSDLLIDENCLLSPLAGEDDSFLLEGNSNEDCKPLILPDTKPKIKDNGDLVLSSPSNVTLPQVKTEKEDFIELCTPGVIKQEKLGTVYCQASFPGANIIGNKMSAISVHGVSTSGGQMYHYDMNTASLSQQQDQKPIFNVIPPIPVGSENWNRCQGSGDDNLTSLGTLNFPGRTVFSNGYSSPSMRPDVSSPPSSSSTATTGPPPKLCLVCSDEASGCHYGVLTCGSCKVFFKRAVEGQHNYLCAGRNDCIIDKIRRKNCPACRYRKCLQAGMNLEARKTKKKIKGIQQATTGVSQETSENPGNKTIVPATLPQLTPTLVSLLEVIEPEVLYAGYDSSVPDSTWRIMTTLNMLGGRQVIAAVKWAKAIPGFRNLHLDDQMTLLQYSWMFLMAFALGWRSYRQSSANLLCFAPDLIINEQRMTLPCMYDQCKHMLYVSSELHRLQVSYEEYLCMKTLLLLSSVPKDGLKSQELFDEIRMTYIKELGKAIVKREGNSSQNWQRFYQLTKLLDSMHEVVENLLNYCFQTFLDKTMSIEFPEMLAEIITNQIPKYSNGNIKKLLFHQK

[7] = molecular target: Delta-type opioid receptor (Homo sapiens, UniProt P41143)
Delta-type opioid receptor, sequence (P41143 whole entry): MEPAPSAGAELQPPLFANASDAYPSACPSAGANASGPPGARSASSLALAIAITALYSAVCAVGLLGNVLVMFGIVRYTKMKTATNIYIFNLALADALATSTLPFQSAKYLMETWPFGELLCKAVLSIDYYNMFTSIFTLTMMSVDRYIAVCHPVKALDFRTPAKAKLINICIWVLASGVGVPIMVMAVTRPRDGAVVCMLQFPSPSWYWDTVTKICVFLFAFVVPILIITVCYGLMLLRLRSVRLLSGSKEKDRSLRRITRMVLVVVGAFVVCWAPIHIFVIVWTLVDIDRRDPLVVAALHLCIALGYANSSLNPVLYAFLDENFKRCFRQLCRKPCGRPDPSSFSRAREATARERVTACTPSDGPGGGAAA

[8] = molecular target: Kappa-type opioid receptor (Homo sapiens, UniProt P41145)
Kappa-type opioid receptor, sequence (P41145 whole entry): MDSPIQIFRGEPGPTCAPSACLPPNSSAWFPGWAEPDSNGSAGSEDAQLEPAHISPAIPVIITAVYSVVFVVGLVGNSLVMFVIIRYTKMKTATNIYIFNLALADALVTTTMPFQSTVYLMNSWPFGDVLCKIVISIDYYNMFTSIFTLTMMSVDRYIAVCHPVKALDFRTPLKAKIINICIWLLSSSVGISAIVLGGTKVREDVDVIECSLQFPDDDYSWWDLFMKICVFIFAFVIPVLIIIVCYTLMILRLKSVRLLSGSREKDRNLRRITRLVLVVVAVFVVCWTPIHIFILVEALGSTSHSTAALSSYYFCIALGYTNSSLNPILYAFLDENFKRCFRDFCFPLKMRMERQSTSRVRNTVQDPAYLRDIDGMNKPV

Histamine H3 receptor = Histamine H3 receptor (Homo sapiens, UniProt Q9Y5N1)
Histamine H3 receptor, sequence (Q9Y5N1 whole entry): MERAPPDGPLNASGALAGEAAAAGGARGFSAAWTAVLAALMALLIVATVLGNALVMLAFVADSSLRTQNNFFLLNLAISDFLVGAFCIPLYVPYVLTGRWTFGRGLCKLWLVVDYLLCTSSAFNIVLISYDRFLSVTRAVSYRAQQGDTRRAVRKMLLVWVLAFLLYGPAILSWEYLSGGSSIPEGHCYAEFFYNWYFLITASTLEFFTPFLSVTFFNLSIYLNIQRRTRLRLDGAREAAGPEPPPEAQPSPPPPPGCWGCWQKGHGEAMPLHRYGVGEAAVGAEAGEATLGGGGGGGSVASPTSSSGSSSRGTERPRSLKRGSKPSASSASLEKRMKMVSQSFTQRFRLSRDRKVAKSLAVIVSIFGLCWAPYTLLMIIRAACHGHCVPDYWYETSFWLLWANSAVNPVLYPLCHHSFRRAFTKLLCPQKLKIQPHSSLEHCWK

Cannabinoid receptor 1 = Cannabinoid receptor 1 (Homo sapiens, UniProt P21554); assay type: functional, cell-based
Cannabinoid receptor 1, sequence (P21554 whole entry): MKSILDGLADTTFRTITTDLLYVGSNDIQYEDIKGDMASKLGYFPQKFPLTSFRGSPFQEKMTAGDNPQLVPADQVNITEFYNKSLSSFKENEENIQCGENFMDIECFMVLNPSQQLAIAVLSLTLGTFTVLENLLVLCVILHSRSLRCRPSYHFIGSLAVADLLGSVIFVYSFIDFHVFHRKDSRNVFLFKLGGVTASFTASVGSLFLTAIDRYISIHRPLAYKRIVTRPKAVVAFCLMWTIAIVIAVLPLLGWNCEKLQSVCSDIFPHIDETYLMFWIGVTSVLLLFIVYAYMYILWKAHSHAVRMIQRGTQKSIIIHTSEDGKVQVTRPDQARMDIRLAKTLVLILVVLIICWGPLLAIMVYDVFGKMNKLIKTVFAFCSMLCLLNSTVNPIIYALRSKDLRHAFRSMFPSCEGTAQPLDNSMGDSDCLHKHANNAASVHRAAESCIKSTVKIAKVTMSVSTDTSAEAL
Note: assay procedure not described here.

| Compound | AC50 (Adenosine receptor A1) | AC50 [1] | AC50 (Vasopressin V2 receptor) | AC50 [2] | AC50 [3] | AC50 [4] | AC50 [5] | AC50 [6] | AC50 (Glucocorticoid receptor) | AC50 [7] | AC50 [8] | AC50 (Histamine H3 receptor) | AC50 (Cannabinoid receptor 1) |
| --- | --- | --- | --- | --- | --- | --- | --- | --- | --- | --- | --- | --- | --- |
| Nc1nc(/C(=C/CC(=O)O)C(=O)N[C@@H]2C(=O)N3C(C(=O)O)=CCS[C@H]23)cs1 [CEFTIBUTEN] | > 30 µM | > 30 µM | > 30 µM | > 30 µM | > 30 µM | > 30 µM | > 30 µM | > 30 µM | > 30 µM | > 30 µM | > 30 µM | > 30 µM | – |
| CC(=O)OCC(=O)[C@@]12N=C(C)O[C@@H]1C[C@H]1[C@@H]3CCC4=CC(=O)C=C[C@]4(C)[C@H]3[C@@H](O)C[C@@]12C [DEFLAZACORT] | > 30 µM | > 30 µM | > 30 µM | > 30 µM | > 30 µM | > 30 µM | > 30 µM | > 30 µM | 0.66 µM | > 30 µM | > 30 µM | > 30 µM | > 30 µM |
| Cc1cc(O)c(C(=O)N[C@@H](C(=O)N[C@@H]2C(=O)N3C(C(=O)O)=C(CSc4nnnn4C)CS[C@H]23)c2ccc(O)cc2)cn1 [CEFPIRAMIDE] | > 30 µM | > 30 µM | > 30 µM | > 30 µM | > 30 µM | > 30 µM | > 30 µM | > 30 µM | > 30 µM | > 30 µM | > 30 µM | > 30 µM | – |
| COc1ccc2c3c1O[C@H]1C(=O)CC[C@@]4(O)[C@@H](C2)N(C)CC[C@]314 [OXYCODONE] | > 30 µM | > 30 µM | > 30 µM | > 30 µM | > 30 µM | > 30 µM | > 30 µM | > 30 µM | > 30 µM | – | – | > 30 µM | > 30 µM |
| CCc1c(Cl)c(O)c(Cl)c(O)c1C(=O)O[C@H]1[C@H](O)[C@H](OC)[C@H](OC/C2=C\C=C\C[C@H](O)/C(C)=C/[C@H](CC)[C@@H](O[C@@H]3OC(C)(C)[C@@H](OC(=O)C(C)C)[C@H](O)[C@@H]3O)/C(C)=C/C(C)=C/C[C@@H]([C@@H](C)O)OC2=O)O[C@@H]1C [FIDAXOMICIN] | > 30 µM | – | > 30 µM | 7.9 µM | > 10 µM | – | 18 µM | > 30 µM | > 30 µM | > 30 µM | > 10 µM | > 10 µM | – |
| Cc1cccc(C(C)c2cnc[nH]2)c1C (stereo not drawn) [MEDETOMIDINE] | > 30 µM | – | > 30 µM | > 30 µM | > 10 µM | > 30 µM | > 30 µM | > 30 µM | > 30 µM | > 30 µM | > 30 µM | > 30 µM | – |
| CO/N=C(\C(=O)N[C@@H]1C(=O)N2C(C(=O)O)=C(CSc3nnnn3C)CS[C@H]12)c1csc(N)n1 [CEFMENOXIME] | > 30 µM | > 30 µM | > 30 µM | > 30 µM | – | > 30 µM | > 30 µM | > 30 µM | > 30 µM | – | – | > 30 µM | > 30 µM |
| CC(Oc1c(Cl)cccc1Cl)C1=NCCN1 (stereo not drawn) [LOFEXIDINE] | > 30 µM | – | > 30 µM | > 30 µM | > 30 µM | 1.1 µM | > 30 µM | > 30 µM | > 30 µM | > 30 µM | 22 µM | > 30 µM | – |
| CC(C)=CCC/C(C)=C/C=C/C(C)=C/C=C/C(C)=C/C=C/C=C(C)/C=C/C=C(C)/C=C/C=C(\C)CCC=C(C)C [LYCOPENE] | > 30 µM | > 30 µM | > 30 µM | > 30 µM | > 30 µM | > 30 µM | > 30 µM | > 30 µM | > 30 µM | > 30 µM | > 30 µM | > 30 µM | – |
| Clc1ccc(CCCOCCCN2CCCCC2)cc1 [PITOLISANT] | > 30 µM | – | > 30 µM | > 30 µM | > 30 µM | > 30 µM | > 30 µM | > 30 µM | > 30 µM | > 30 µM | > 30 µM | – | > 30 µM |
| COC(=O)C1=C(C)NC(C)=C(C(=O)OC(C)(C)CN(C)CCC(c2ccccc2)c2ccccc2)C1c1cccc([N+](=O)[O-])c1 (stereo not drawn) [LERCANIDIPINE] | > 30 µM | > 30 µM | > 30 µM | > 30 µM | > 30 µM | > 30 µM | > 30 µM | > 30 µM | > 30 µM | > 30 µM | 3.8 µM | – | – |
| O=C(O)C1=C(CSc2nnnn2CS(=O)(=O)O)CS[C@@H]2[C@H](NC(=O)[C@H](O)c3ccccc3)C(=O)N12 [CEFONICID] | > 30 µM | > 30 µM | > 30 µM | > 30 µM | > 30 µM | > 30 µM | > 30 µM | > 30 µM | > 30 µM | > 30 µM | > 30 µM | > 30 µM | – |
| CC(C(=O)O)c1ccc(N2Cc3ccccc3C2=O)cc1 (stereo not drawn) [INDOPROFEN] | > 30 µM | > 30 µM | > 30 µM | > 30 µM | > 30 µM | > 30 µM | > 30 µM | > 30 µM | > 30 µM | > 30 µM | > 30 µM | > 30 µM | – |
